Experiments:
[1] = system: NDM-1 Enterobacter cloacae; test: Nitrogen utilisation assay; assay type: cell-based; conditions: M9 minimal medium with glucose, 0.1% (w/v) nitrogen source
Experimental: (§1) New Delhi Metallo-β-lactamase 1 (NDM-1) Escherichia coli, NDM-1 Klebsiella pneumoniae, and NDM-1 Enterobacter cloacae were isolated from patients with intestinal CRE colonisation from the Imperial College Healthcare NHS Trust via rectal swab (REC ref. 19/LO/0112). The species were assigned by matrix assisted laser desorption ionization-time of flight (MALDI-TOF) mass spectrometry and later confirmed with 16S rRNA gene sequencing. CRE status was determined using X-pert Carba-R PCR detection (Cepheid, Sunnyvale, CA, USA), (Otter, J. A. et al. Detecting carbapenemase-producing Enterobacterales (CPE): an evaluation of an enhanced CPE infection control and screening programme in acute care. J Antimicrob Chemother 75, 2670-2676 (2020)).
(§2) Growth of CRE isolates on sole carbon or nitrogen sources was tested by inoculating each CRE isolate into a minimal medium supplemented with the nutrient of interest. First, CRE isolates were passaged from frozen glycerol stocks on Reasoner's 2A agar (R2A) plates. Cells were then suspended in M9 minimal media to a turbidity of 42% using a Turbidimeter (Biolog Inc.), then diluted a further 1 in 6 to inoculate the carbon or nitrogen utilisation assays. M9 minimal media contained the following (at final concentrations): 22 mM KH2PO4, 42 mM Na2HPO4, 9 mM NaCl, 0.49 mM MgSO4·7H2O, 0.09 mM CaCl2), 0.011 mM FeSO4·7H2O. For the carbon assays the M9 minimal medium was also supplemented with 0.1% (w/v) NH4Cl (as the nitrogen source) and the carbon sources were individually tested at 0.5% (w/v) concentration. For the nitrogen assays the M9 minimal medium was also supplemented with 0.5% (w/v) glucose (as the carbon source) and the nitrogen sources were individually tested at 0.1% (w/v) concentration. Cultures were incubated anaerobically and aerobically in a plate reader and OD600 readings were collected every 15 minutes for 24 hours.
(§3) Growth curves were analysed in Python (v3.6.5) using the AMiGA software (Midani, F. S., Collins, J. & Britton, R. A. AMiGA: Software for Automated Analysis of Microbial Growth Assays. mSystems 6, e0050821 (2021)). Growth of each isolate was measured with 6 wells from 2-3 independent experiments. Growth curves were normalised to the no substrate control using the subtraction method. AMiGA performed Gaussian Process regression to test differential growth between the substrate and the no substrate control. The functional difference in the OD (and its credible interval) was also computed between the substrate and the no substrate control.

[2] = system: NDM-1 Escherichia coli; test: Nitrogen utilisation assay; assay type: cell-based; conditions: M9 minimal medium with glucose, 0.1% (w/v) nitrogen source
Experimental: as §1, §2, §3

[3] = system: NDM-1 Klebsiella pneumoniae; test: Nitrogen utilisation assay; assay type: cell-based; conditions: M9 minimal medium with glucose, 0.1% (w/v) nitrogen source
Experimental: as §1, §2, §3

[4] = system: NDM-1 Enterobacter cloacae; test: Nutrient preference assay (nutrient mixture); assay type: cell-based; conditions: M9 with […] of each nutrient, up to 24 hours
Experimental: as §1
(§4) CRE isolates were passaged once from frozen glycerol stocks on R2A plates. Cells were suspended in M9 minimal media to a turbidity of 42% using a Turbidimeter (Biolog Inc.), then diluted 1 in 6 to inoculate the nutrient preference assays. M9 minimal media was supplemented with 0.015% of each of the following: L-arabinose, D-fructose, L-fucose, D-galactose, D-glucose, D-mannose, D-ribose, D-xylose, N-acetylglucosamine, D-maltose, sucrose, D-trehalose, L-alanine, L-arginine, L-aspartate, L-glutamate, L-glycine, L-isoleucine, L-leucine, L-lysine, L-methionine, L-phenylalanine, L-proline, L-threonine, L-tryptophan, L-tyrosine, L-valine, uracil, and succinate. Cultures were incubated anaerobically and aerobically in a plate reader and OD600 readings were collected every 15 minutes for 24 hours. Cultures were also incubated anaerobically and aerobically for 24 h and samples were collected at 0, 4, 8, and 24 hours post-inoculation for 1H-NMR spectroscopy. Changes in nutrients and metabolites by CRE isolates was compared to the sterile media control over time using a two-way mixed ANOVA followed by pairwise comparisons with Bonferroni correction. […]

[5] = system: vancomycin-resistant E. faecalis; test: VRE nutrient utilization protocol: nitrogen sources, leave-one-out; assay type: cell-based, Enterococcus faecalis; conditions: aerobic; leave-one-out from nitrogen source mixture in minimal medium
Experimental: (§5) VRE minimal media consists of potassium phosphate monobasic (4 g/L), potassium phosphate dibasic (14 g/L), sodium citrate (1 g/L), magnesium sulphate (0.2 g/L), ammonium sulphate (2 g/L), adenosine (0.04 g/L), thymine (0.04 g/L), Kao and Michayluk vitamin solution [Sigma, K3129, 50× Stock](5×), glucose (1 g/L) and amino acid solution [Sigma, R7131, RPMI-1640, 50×](25×). If the study was performed under anaerobic conditions, fumarate (5.2 g/L) was added to increase growth of VRE strains. Carbon-free minimal media was prepared by leaving out glucose while nitrogen-free minimal media was prepared without the amino acid solution. Media was filter sterilized with a 0.22 micron filter and used immediately aerobically or degassed overnight if used anaerobically.
(§6) VRE strains were grown on R2A overnight before the cells were suspended in 0.9% saline to an OD of 0.38 (λ=595 nm). A 10% dilution of the cell suspension was prepared using VRE minimal media to achieve a final well OD of […] (λ=595 nm) greater than the sterile media OD. Both carbon and nitrogen source utilization were evaluated by adding the inoculated media and a filter-sterilised nutrient source solution into a well in a 1:1 ration to a final volume of 100 μL in aerobic tests and 200 μL in anaerobic tests. Carbon sources were tested individually and compared to a carbon-free control. To test nitrogen source utilization, a nitrogen source solution was prepared containing L-alanine (2 g/L), L-arginine (2.5 g/L, L-asparagine (0.71 g/L), L-aspartate (0.25 g/L), L-cysteine (0.625 g/L), L-glutamate (0.25 g/L), L-Glycine (0.125 g/L), L-histidine (0.1875 g/L), L-isoleucine (0.625 g/L), L-leucine (0.625 g/L), L-lysine HCl (0.5 g/L), L-methionine (0.1875 g/L), L-phenylalanine (0.1875 g/L), L-proline (0.25 g/L), L-serine (0.375 g/L), L-threonine (0.25 g/L), L-tryptophan (0.0625 g/L), L-tyrosine (0.29 g/L), L-valine (0.25 g/L), N-acetylglucosamine (2 g/L), and uracil (2.5 g/L). To test the strains' ability to utilize individual nitrogen sources, separate solutions were prepared eliminating one nitrogen source each. The change in growth compared to the complete nitrogen source solution control was used to determine nitrogen utilization. All carbon and nitrogen sources were tested in a technical triplicate for each biological replicate. Aerobic plates were incubated with a plate seal while anaerobic plates were not. The aerobic plate reader was set to read the plate (λ=595 nm, 37° C., 22 flashes per well, orbital shaking of 100 rpm for 15 s prior to each read) every 15 minutes for 24 hours. The anaerobic plate reader read the plate (λ=595 nm, 37° C., stationary) every 15 minutes for 24 hours.

[6] = system: vancomycin-resistant E. faecium; test: as above; assay type: cell-based, Enterococcus faecium; conditions: aerobic; leave-one-out from nitrogen source mixture in minimal medium
Experimental: as §5, §6

[7] = system: NDM-1 Enterobacter cloacae; test: Carbon utilisation assay; assay type: cell-based; conditions: aerobic; M9 minimal medium, 0.5% (w/v) carbon source
Experimental: as §1, §2, §3

[8] = system: NDM-1 Klebsiella pneumoniae; test: Nutrient preference assay (nutrient mixture); assay type: cell-based; conditions: M9 with […] of each nutrient, up to 24 hours
Experimental: as §1, §4

[9] = system: NDM-1 Klebsiella pneumoniae; test: Carbon utilisation assay; assay type: cell-based; conditions: aerobic; M9 minimal medium, 0.5% (w/v) carbon source
Experimental: as §1, §2, §3

[10] = system: NDM-1 Escherichia coli; test: Nutrient preference assay (nutrient mixture); assay type: cell-based; conditions: M9 with […] of each nutrient, up to 24 hours
Experimental: as §1, §4

| Structure (SMILES) | Use as sole nitrogen source to support K. pneumoniae growth ([3]; aerobic) | Utilisation of nutrient by E. cloacae from nutrient mixture (1H-NMR) ([4]; aerobic) | Utilisation of nutrient by E. cloacae from nutrient mixture (1H-NMR) ([4]; anaerobic) | Use as nitrogen source to support E. faecalis growth [5] | Use as nitrogen source to support E. faecium growth [6] | Use as sole nitrogen source to support E. cloacae growth ([1]; aerobic) | Use as sole nitrogen source to support E. coli growth ([2]; aerobic) | also measured |
| --- | --- | --- | --- | --- | --- | --- | --- | --- |
| N=C(N)NCCC[C@H](N)C(=O)O [arginine, L-arginine] | could use | high utilisation | high utilisation | could use | could use | – | – | Use as sole nitrogen source to support E. cloacae growth ([1]; anaerobic): could use; Use as sole nitrogen source to support E. coli growth ([2]; anaerobic): could use; Use as sole nitrogen source to support K. pneumoniae growth ([3]; anaerobic): could use |
| N[C@@H](CS)C(=O)O [cysteine, L-cysteine] | – | – | – | could use | – | – | – | – |
| C[C@H](O)[C@@H](O)[C@@H](O)[C@H](O)C=O [fucose, L-fucose] | – | – | – | – | – | – | – | Use as sole carbon source to support E. cloacae growth [7]: able to grow; Utilisation of nutrient by K. pneumoniae from nutrient mixture (1H-NMR) ([8]; aerobic): not utilised; Utilisation of nutrient by K. pneumoniae from nutrient mixture (1H-NMR) ([8]; anaerobic): not utilised |
| NCC(=O)O [glycine, L-glycine] | able to grow | – | – | could use | could use | able to grow | able to grow | – |
| N[C@@H](Cc1c[nH]cn1)C(=O)O [histidine, L-histidine] | – | – | – | could use | could use | – | – | – |
| CC[C@H](C)[C@H](N)C(=O)O [isoleucine, L-isoleucine] | able to grow | – | – | could use | could use | able to grow | able to grow | – |
| CC(C)C[C@H](N)C(=O)O [leucine, L-leucine] | able to grow | – | – | could use | could use | able to grow | able to grow | – |
| CSCC[C@H](N)C(=O)O [methionine, L-methionine] | able to grow | – | – | could use | could use | able to grow | able to grow | – |
| N[C@@H](Cc1ccccc1)C(=O)O [phenylalanine, L-phenylalanine] | – | – | – | – | could use | able to grow | – | – |
| O=C(O)[C@@H]1CCCN1 [proline, L-proline] | able to grow | not utilised | not utilised | – | – | able to grow | able to grow | Use as sole carbon source to support K. pneumoniae growth [9]: able to grow; Utilisation of nutrient by E. coli from nutrient mixture (1H-NMR) ([10]; aerobic): not utilised; Utilisation of nutrient by E. coli from nutrient mixture (1H-NMR) ([10]; anaerobic): not utilised; Utilisation of nutrient by K. pneumoniae from nutrient mixture (1H-NMR) ([8]; anaerobic): not utilised |
| N[C@@H](CO)C(=O)O [serine, L-serine] | – | – | – | could use | could use | – | – | – |
| C[C@@H](O)[C@H](N)C(=O)O [threonine, L-threonine] | – | high utilisation | high utilisation | – | could use | able to grow | able to grow | Utilisation of nutrient by E. coli from nutrient mixture (1H-NMR) ([10]; aerobic): moderate utilisation; Utilisation of nutrient by K. pneumoniae from nutrient mixture (1H-NMR) ([8]; aerobic): high utilisation |
| N[C@@H](Cc1ccc(O)cc1)C(=O)O [tyrosine, L-tyrosine] | – | not utilised | not utilised | – | – | – | able to grow | – |
| O=c1cc[nH]c(=O)[nH]1 [uracil] | able to grow | did not use | did not utilise | – | – | able to grow | able to grow | Utilisation of nutrient by E. coli from nutrient mixture (1H-NMR) ([10]; aerobic): moderate utilisation; Utilisation of nutrient by E. coli from nutrient mixture (1H-NMR) ([10]; anaerobic): moderate utilisation; Utilisation of nutrient by K. pneumoniae from nutrient mixture (1H-NMR) ([8]; aerobic): low utilisation; Utilisation of nutrient by K. pneumoniae from nutrient mixture (1H-NMR) ([8]; anaerobic): did not utilise |
| CC(C)[C@H](N)C(=O)O [valine, L-valine] | – | – | – | could use | could use | – | – | Use as sole nitrogen source to support E. coli growth ([2]; anaerobic): could use |
